Patent US20100137372A1, “ISOXAZOLINE COMPOUNDS AND THEIR USE IN PEST CONTROL” (priority 2007, published 2010)

System: summer fruit tortrix (Adoxophyes orana)
Assay: Test Example 2: artificial feed irrigated with test dilution, mortality of summer fruit tortrix larvae
Format: in vivo
Settings: 168 h
Protocol: The formulation of the present compound (79) obtained according to Formulation Example 5 was diluted with water so as to have an active ingredient concentration of 2,500 ppm. Thus, a test dilution was prepared.
The bottom of a polyethylene cup having a diameter of 5.5 cm was covered with a filter paper having the same diameter. Artificial feed (Silkmate 2S; Nihon Nosan Kogyo K.K.) sliced in a thickness of 2 mm was placed on the filter paper, and 1 mL of the above-mentioned test dilution was irrigated on the artificial feed. After air-drying of the test dilution, a filter paper having a diameter of 5.5 cm was placed on the artificial feed, and 30 first-instar larvae of summer fruit tortrix (Adoxophyes orana) were released on this filter paper, after which the cup was closed with a lid. After 7 days, larvae of summer fruit tortrix were counted and the mortality was calculated by the following equation:
Mortality (t)=(Number of dead larvae/Number of released larvae)×100

COC(=O)Nc1cc(C2=NOC(c3cc(Cl)cc(Cl)c3)(C(F)(F)F)C2)ccc1Cl (centres unmarked) [present compound (79), N-(5-(5-(3,5-dichlorophenyl)-4,5-dihydro-5-trifluoromethyl-3-isoxazolyl)-2-chlorophenyl)-O-methylcarbamate] gave a mortality at 2500 ppm of no less than 80%.

Same assay, conditions: 168 h, active ingredient concentration 2,500 ppm, 1 mL on artificial feed, 30 first-instar larvae, counted after 7 days, read-out: Mortality

In the case of COC(=O)NNc1cc(C2=NOC(C)(c3ccccc3)C2)ccc1Cl (centres unmarked) [compound number 1-2, reference compound], the mortality at 2500 ppm is reported as 0%.

System: diamondback moth (Plutella xylostella)
Assay: Test Example 1: spray of test liquid on cabbage plant, control efficacy against diamondback moth larvae
Format: in vivo
Settings: 120 h, active ingredient concentration 500 ppm, 20 ml per cup sprayed on cabbage, 10 third-instar larvae, counted after 5 days

Going from COC(=O)NNc1cc(C2=NOC(C)(c3ccccc3)C2)ccc1Cl (centres unmarked) [compound number 1-2, reference compound] to Cc1ccc(C2=NOC(c3cc(Cl)cc(Cl)c3)(C(F)(F)F)C2)cc1NC(=O)c1ccccc1F (centres unmarked) [present compound (13), N-(5-(5-(3,5-dichlorophenyl)-4,5-dihydro-5-trifluoromethyl-3-isoxazolyl)-2-methylphenyl)-2-fluorobenzamide], the pest or weed control at 500 ppm rises from 0% to no less than 80%.

N#Cc1ccc(C(=O)Nc2cccc(C3=NOC(c4cc(Cl)cc(Cl)c4)(C(F)(F)F)C3)c2)cc1 (centres unmarked) [present compound (5), N-(3-(5-(3,5-dichlorophenyl)-4,5-dihydro-5-trifluoromethyl-3-isoxazolyl)phenyl)-4-cyanobenzamide] and O=C(Nc1cccc(C2=NOC(c3cc(Cl)cc(Cl)c3)(C(F)(F)F)C2)c1)c1cccnc1Cl (centres unmarked) [present compound (7), N-(3-(5-(3,5-dichlorophenyl)-4,5-dihydro-5-trifluoromethyl-3-isoxazolyl)phenyl)-2-chloronicotinamide] cannot be ordered by pest or weed control at 500 ppm: no less than 80% for the first, no less than 80% for the second.

Cc1ccc(C2=NOC(c3cc(Cl)cc(Cl)c3)(C(F)(F)F)C2)cc1NC(=O)c1ccc(F)cc1 (centres unmarked) [present compound (15), N-(5-(5-(3,5-dichlorophenyl)-4,5-dihydro-5-trifluoromethyl-3-isoxazolyl)-2-methylphenyl)-4-fluorobenzamide] and COc1ccc(C(=O)Nc2cc(C3=NOC(c4cc(Cl)cc(Cl)c4)(C(F)(F)F)C3)ccc2C)cc1 (centres unmarked) [present compound (30), N-(5-(5-(3,5-dichlorophenyl)-4,5-dihydro-5-trifluoromethyl-3-isoxazolyl)-2-methylphenyl)-4-methoxybenzamide] cannot be ordered by pest or weed control at 500 ppm: no less than 80% for the first, no less than 80% for the second.

Cc1ccc(C2=NOC(c3cc(Cl)cc(Cl)c3)(C(F)(F)F)C2)cc1NC(=O)c1cccc(Cl)c1 (centres unmarked) [present compound (17), N-(5-(5-(3,5-dichlorophenyl)-4,5-dihydro-5-trifluoromethyl-3-isoxazolyl)-2-methylphenyl)-3-chlorobenzamide] and Cc1ccc(C2=NOC(c3cc(Cl)cc(Cl)c3)(C(F)(F)F)C2)cc1NC(=O)c1ccc(C(F)(F)F)cc1 (centres unmarked) [present compound (31), N-(5-(5-(3,5-dichlorophenyl)-4,5-dihydro-5-trifluoromethyl-3-isoxazolyl)-2-methylphenyl)-4-trifluoromethylbenzamide] cannot be ordered by pest or weed control at 500 ppm: no less than 80% for the first, no less than 80% for the second.

C/C=C/C(=O)Nc1cc(C2=NOC(c3cc(Cl)cc(Cl)c3)(C(F)(F)F)C2)ccc1C (centres unmarked) [present compound (48), N-(5-(5-(3,5-dichlorophenyl)-4,5-dihydro-5-trifluoromethyl-3-isoxazolyl)-2-methylphenyl)crotonamide] and Cc1ccc(C2=NOC(c3cc(Cl)cc(Cl)c3)(C(F)(F)F)C2)cc1NC(=O)N(C)C (centres unmarked) [present compound (57), 3-(5-(5-(3,5-dichlorophenyl)-4,5-dihydro-5-trifluoromethyl-3-isoxazolyl)-2-methylphenyl)-1,1-dimethylurea] cannot be ordered by pest or weed control at 500 ppm: no less than 80% for the first, no less than 80% for the second.

CCOC(=O)Nc1cc(C2=NOC(c3cc(Cl)cc(Cl)c3)(C(F)(F)F)C2)ccc1C (centres unmarked) [present compound (60), N-(5-(5-(3,5-dichlorophenyl)-4,5-dihydro-5-trifluoromethyl-3-isoxazolyl)-2-methylphenyl)-O-ethylcarbamate] and Cc1ccc(C2=NOC(c3cc(Cl)cc(Cl)c3)(C(F)(F)F)C2)cc1NC(=O)OCC(C)C (centres unmarked) [present compound (64), N-(5-(5-(3,5-dichlorophenyl)-4,5-dihydro-5-trifluoromethyl-3-isoxazolyl)-2-methylphenyl)-O-isobutylcarbamate] cannot be ordered by pest or weed control at 500 ppm: no less than 80% for the first, no less than 80% for the second.

CCc1ccc(C2=NOC(c3cc(Cl)cc(Cl)c3)(C(F)(F)F)C2)cc1NC(=O)CC(F)(F)F (centres unmarked) [present compound (71), N-(3-(5-(3,5-dichlorophenyl)-4,5-dihydro-5-trifluoromethyl-3-isoxazolyl)-6-ethylphenyl)-3,3,3-trifluoropropionylamide] and COc1ccc(C2=NOC(c3cc(Cl)cc(Cl)c3)(C(F)(F)F)C2)cc1NC(=O)CC(F)(F)F (centres unmarked) [present compound (78), N-(5-(5-(3,5-dichlorophenyl)-4,5-dihydro-5-trifluoromethyl-3-isoxazolyl)-2-methoxyphenyl)-3,3,3-trifluoropropionylamide] cannot be ordered by pest or weed control at 500 ppm: no less than 80% for the first, no less than 80% for the second.

With Cc1c(NC(=O)CC(F)(F)F)cccc1C1=NOC(c2cc(Cl)cc(Cl)c2)(C(F)(F)F)C1 (centres unmarked) [present compound (72), N-(3-(5-(3,5-dichlorophenyl)-4,5-dihydro-5-trifluoromethyl-3-isoxazolyl)-2-methylphenyl)-3,3,3-trifluoropropionylamide] the pest or weed control at 500 ppm was no less than 80%.
